Assay results: patent publication US9925222B2, “Gut barrier dysfunction treatment and prevention” (ALBERT EINSTEIN COLLEGE OF MEDICINE OF YESHIVA UNIVERSITY, priority 2012, dated 2018)

Assays:
[1] = tested on: Tnf-α mRNA expression; test: KDO2-lipid A gut mucosal endotoxemia model with oral IPA, Tnf-α qPCR in jejunum apical enterocytes; format: in vivo; conditions: KDO2 200 μg/mice, oral IPA 20 mg/kg
Procedure: 2.0 μg of total RNA extracted from pooled apical enterocytes with TRIzolR (Invitrogen), were reverse transcribed with random hexamer primers and SuperScript™ III-RT enzyme (Invitrogen). Quantitative PCR (qPCR) reactions using TaqMan universal PCR master mix and TaqMan probes containing FAM as the 5′ reporter fluorochrome and tetramethylrhodamine (MGB) as the 3′ quencher fluorochrome, were performed in triplicate for each sample and analyzed on the ABI Prism 7900HT system. […]
For indomethacin induced mouse jejunitis model, a protocol published by Ettarh and Carr was modified by using a single intraperitoneal dose of indomethacin to reduce the toxicity in Pxr^−/− mice (17). […] Weights of individual jejunum sections were measured for quantitation of enteropooling (intestinal weight/length in mg/cm). […]

[2] = tested on: gut permeability to FITC-dextran; test: In vivo FITC-dextran gut permeability assay in germ free mice after oral IPA; conditions: germ free (SWGF) mice; oral IPA 20 mg/kg, four consecutive days
Procedure: Age and sex-matched mice were orally administered with 0.6 mg/g body weight of an 80 mg/ml solution of FITC-dextran (FD4, Sigma). 5 h later, retro-orbital blood was collected from each mouse. Serum was prepared by allowing the blood to clot by leaving it undisturbed overnight at 4° C. and then subsequently centrifuged at 3000 rpm for 20 minutes. Dilutions of FITC-dextran in PBS were used as a standard curve. Absorption of 50 μl serum was measured at microplate reader with excitation and emission filters set at 490 and 530 nm, respectively (38).

[3] = target: T1, aryl hydrocarbon receptor (AhR) (Homo sapiens, UniProt P35869); test: AhR activation
T1 sequence (P35869 11-848): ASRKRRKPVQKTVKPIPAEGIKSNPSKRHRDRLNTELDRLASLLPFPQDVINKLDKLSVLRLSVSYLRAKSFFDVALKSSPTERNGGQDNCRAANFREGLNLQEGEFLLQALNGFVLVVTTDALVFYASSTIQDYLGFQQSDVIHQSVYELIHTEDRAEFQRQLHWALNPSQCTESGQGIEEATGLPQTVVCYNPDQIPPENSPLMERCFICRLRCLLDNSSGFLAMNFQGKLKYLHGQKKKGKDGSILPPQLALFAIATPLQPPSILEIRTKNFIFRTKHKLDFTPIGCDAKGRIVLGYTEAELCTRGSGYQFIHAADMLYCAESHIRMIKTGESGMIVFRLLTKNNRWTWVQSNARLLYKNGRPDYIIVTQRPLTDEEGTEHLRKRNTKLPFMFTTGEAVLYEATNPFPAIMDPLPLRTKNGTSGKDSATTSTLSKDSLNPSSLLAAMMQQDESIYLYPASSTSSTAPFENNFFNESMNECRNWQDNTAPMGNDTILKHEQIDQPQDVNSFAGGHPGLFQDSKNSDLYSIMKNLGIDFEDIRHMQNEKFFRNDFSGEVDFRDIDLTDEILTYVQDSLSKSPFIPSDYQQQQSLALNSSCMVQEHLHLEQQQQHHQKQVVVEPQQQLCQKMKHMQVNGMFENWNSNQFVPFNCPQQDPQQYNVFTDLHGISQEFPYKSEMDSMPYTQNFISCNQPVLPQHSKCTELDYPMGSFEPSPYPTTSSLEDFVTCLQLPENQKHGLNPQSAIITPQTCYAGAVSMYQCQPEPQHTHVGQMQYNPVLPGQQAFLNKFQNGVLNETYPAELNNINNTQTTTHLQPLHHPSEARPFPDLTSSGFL

Compound: O=C(O)CCc1c[nH]c2ccccc12 [IPA, indole-3-propionic acid]
- Decrease of epithelial Tnf mRNA expression ([1]; Pxr+/+ mice): 3.73 fold
- Decrease of epithelial Tnf mRNA expression ([1]; Pxr−/− mice): 1.72 fold
- Gut permeability to FITC-dextran [2]: decreased gut permeability to FITC-dextran
- Activation of AhR [3]: no activation
